US12559492B2, “BRAF degraders” (C4 Therapeutics, Inc., priority 2020, dated 2026)
Where a name gives a salt, the structure may show the parent alone.

Molecular target: BRAF^V600E protein (Homo sapiens, UniProt P15056, V600E)
Experiment: HiBiT cellular BRAF V600E degradation assay
Type: cell-based
Conditions: 24 h incubation; for DC50: A375.10 cells (HiBiT tag knocked in at N-terminal of BRAF V600E), concentration at which 50% of total cellular BRAF V600E is degraded; for Emax: read-out: HiBit 24 h Emax
[1] = A375.10 cells, Emax = amount of residual protein remaining in the cell after compound treatment

Chain of BRAF^V600E protein (P15056 whole entry V600E): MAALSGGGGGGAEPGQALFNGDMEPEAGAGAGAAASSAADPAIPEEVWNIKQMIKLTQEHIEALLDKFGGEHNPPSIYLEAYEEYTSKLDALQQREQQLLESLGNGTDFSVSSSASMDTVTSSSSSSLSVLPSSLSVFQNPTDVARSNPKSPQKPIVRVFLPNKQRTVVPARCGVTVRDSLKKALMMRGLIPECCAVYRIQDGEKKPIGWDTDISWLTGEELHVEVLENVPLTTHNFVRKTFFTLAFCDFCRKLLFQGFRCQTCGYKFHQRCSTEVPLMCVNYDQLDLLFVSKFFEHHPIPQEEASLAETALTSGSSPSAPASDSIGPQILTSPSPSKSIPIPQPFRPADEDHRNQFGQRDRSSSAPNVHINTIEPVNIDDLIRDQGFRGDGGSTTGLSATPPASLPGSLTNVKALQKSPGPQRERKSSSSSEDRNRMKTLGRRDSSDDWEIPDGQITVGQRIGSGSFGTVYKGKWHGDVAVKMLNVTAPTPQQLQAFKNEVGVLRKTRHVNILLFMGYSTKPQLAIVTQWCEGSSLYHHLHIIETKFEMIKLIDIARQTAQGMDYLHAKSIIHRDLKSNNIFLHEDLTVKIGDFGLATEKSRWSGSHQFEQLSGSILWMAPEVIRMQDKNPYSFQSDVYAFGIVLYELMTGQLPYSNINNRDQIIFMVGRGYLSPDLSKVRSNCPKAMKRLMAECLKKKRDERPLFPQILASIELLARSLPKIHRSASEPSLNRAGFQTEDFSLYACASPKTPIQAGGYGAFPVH

CCN(C)S(=O)(=O)Nc1ccc(F)c(C(=O)c2c[nH]c3ncc(-c4cnc(N5CCC(C(=O)N6CCC(c7ccc(NC8CCC(=O)NC8=O)cc7)CC6)CC5)nc4)cc23)c1F (stereo not shown) [Example A94, 5-[2-[4-[4-[4-[(2,6-Dioxopiperidin-3-yl)amino]phenyl]piperidine-1-carbonyl]piperidin-1-yl]pyrimidin-5-yl]-3-[3-[[ethyl(methyl)sulfamoyl]amino]-2,6-difluorobenzoyl]-1H-pyrrolo[2,3-b]pyridine]
DC50: 13 nM
HiBit 24 h Emax [1]: 8%

CCN(C)S(=O)(=O)Nc1ccc(F)c(C(=O)c2c[nH]c3ncc(-c4ccc(N5CCC(N(C)C(=O)CN6CCC(c7ccc(NC8CCC(=O)NC8=O)cn7)CC6)CC5)nc4)cc23)c1F (stereo not shown) [Example A95, 2-[4-[5-[(2,6-Dioxopiperidin-3-yl)amino]pyridin-2-yl]piperidin-1-yl]-N-[1-[5-[3-[3-[[ethyl(methyl)sulfamoyl]amino]-2,6-difluorobenzoyl]-1H-pyrrolo[2,3-b]pyridin-5-yl]pyridin-2-yl]piperidin-4-yl]-N-methylacetamide;hydrochloride]
DC50: 11 nM
Emax [1]: 7%

CCN(C)S(=O)(=O)Nc1ccc(F)c(C(=O)c2c[nH]c3ncc(-c4ccc(N5CCC(NCC(=O)N6CCC(c7ccc(NC8CCC(=O)NC8=O)cn7)CC6)CC5)cc4)cc23)c1F (stereo not shown) [Example A96, 5-[4-[4-[[2-[4-[5-[(2,6-Dioxopiperidin-3-yl)amino]pyridin-2-yl]piperidin-1-yl]-2-oxoethyl]amino]piperidin-1-yl]phenyl]-3-[3-[[ethyl(methyl)sulfamoyl]amino]-2,6-difluorobenzoyl]-1H-pyrrolo[2,3-b]pyridine; hydrochloride]
DC50: 18 nM
Emax [1]: 9%

CCN(C)S(=O)(=O)Nc1ccc(F)c(C(=O)c2c[nH]c3ncc(-c4ccc(N5CCC(NCC(=O)N6CCC(c7ccc(OC8CCC(=O)NC8=O)cn7)CC6)CC5)cc4)cc23)c1F (stereo not shown) [Example A97, 5-[4-[4-[[2-[4-[5-(2,6-Dioxopiperidin-3-yl)oxypyridin-2-yl]piperidin-1-yl]-2-oxoethyl]amino]piperidin-1-yl]phenyl]-3-[3-[[ethyl(methyl)sulfamoyl]amino]-2,6-difluorobenzoyl]-1H-pyrrolo[2,3-b]pyridine;hydrochloride]
DC50: 84 nM
Emax [1]: 12%

CCN(C)S(=O)(=O)Nc1ccc(F)c(C(=O)c2c[nH]c3ncc(-c4ccc(N5CCC(NCC(=O)N6CCC(c7ccc(NC8CCC(=O)NC8=O)cc7)CC6)CC5)cc4)cc23)c1F (stereo not shown) [Example A98, 5-[4-[4-[[2-[4-[4-[(2,6-Dioxopiperidin-3-yl)amino]phenyl]piperidin-1-yl]-2-oxoethyl]amino]piperidin-1-yl]phenyl]-3-[3-[[ethyl(methyl)sulfamoyl]amino]-2,6-difluorobenzoyl]-1H-pyrrolo[2,3-b]pyridine; hydrochloride]
DC50: 12 nM
Emax [1]: 12%

CCN(C)S(=O)(=O)Nc1ccc(F)c(C(=O)c2c[nH]c3ncc(-c4ccc(N5CCC(NCC(=O)N6CCC(c7ccc(OC8CCC(=O)NC8=O)cc7)CC6)CC5)cc4)cc23)c1F (stereo not shown) [Example A99, 5-[4-[4-[[2-[4-[4-(2,6-Dioxopiperidin-3-yl)oxyphenyl]piperidin-1-yl]-2-oxoethyl]amino]piperidin-1-yl]phenyl]-3-[3-[[ethyl(methyl)sulfamoyl]amino]-2,6-difluorobenzoyl]-1H-pyrrolo[2,3-b]pyridine;hydrochloride]
DC50: 32 nM
Emax [1]: 9%

CCN(C)S(=O)(=O)Nc1ccc(F)c(C(=O)c2c[nH]c3ncc(-c4cnc(N5CCC(NCC(=O)N6CCC(c7ccc(NC8CCC(=O)NC8=O)cc7)CC6)CC5)nc4)cc23)c1F (stereo not shown) [Example A100, 5-[2-[4-[[2-[4-[4-[(2,6-Dioxopiperidin-3-yl)amino]phenyl]piperidin-1-yl]-2-oxoethyl]amino]piperidin-1-yl]pyrimidin-5-yl]-3-[3-[[ethyl(methyl)sulfamoyl]amino]-2,6-difluorobenzoyl]-1H-pyrrolo[2,3-b]pyridine;hydrochloride]
DC50: 10 nM
Emax [1]: 11%

CCN(C)S(=O)(=O)Nc1ccc(F)c(C(=O)c2c[nH]c3ncc(-c4ccc(N5CCC(N(C)CC(=O)N6CCC(c7ccc(NC8CCC(=O)NC8=O)cn7)CC6)CC5)nc4)cc23)c1F (stereo not shown) [Example A101, 5-[6-[4-[[2-[4-[5-[(2,6-Dioxopiperidin-3-yl)amino]pyridin-2-yl]piperidin-1-yl]-2-oxoethyl]-methylamino]piperidin-1-yl]pyridin-3-yl]-3-[3-[[ethyl(methyl)sulfamoyl]amino]-2,6-difluorobenzoyl]-1H-pyrrolo[2,3-b]pyridine; hydrochloride]
DC50: 20 nM
Emax [1]: 19%

CCN(C)S(=O)(=O)Nc1ccc(F)c(C(=O)c2c[nH]c3ncc(-c4cnc(N5CCC(NCC(=O)N6CCC(c7ccc(OC8CCC(=O)NC8=O)cc7)CC6)CC5)nc4)cc23)c1F (stereo not shown) [Example A102, 5-[2-[4-[[2-[4-[4-(2,6-Dioxopiperidin-3-yl)oxyphenyl]piperidin-1-yl]-2-oxoethyl]amino]piperidin-1-yl]pyrimidin-5-yl]-3-[3-[[ethyl(methyl)sulfamoyl]amino]-2,6-difluorobenzoyl]-1H-pyrrolo[2,3-b]pyridine;formic acid]
DC50: 33 nM
Emax [1]: 12%

CCN(C)S(=O)(=O)Nc1ccc(F)c(C(=O)c2c[nH]c3ncc(-c4ccc(N5CCN(C(=O)CN6CCC(c7ccc(N8CCC(=O)NC8=O)cc7)CC6)CC5)nc4)cc23)c1F [Example A104, 5-[6-[4-[2-[4-[4-(2,4-Dioxo-1,3-diazinan-1-yl)phenyl]piperidin-1-yl]acetyl]piperazin-1-yl]pyridin-3-yl]-3-[3-[[ethyl(methyl)sulfamoyl]amino]-2,6-difluorobenzoyl]-1H-pyrrolo[2,3-b]pyridine]
DC50: 10 nM
Emax [1]: 7%

O=C1CCC(Nc2ccc(CC(=O)N[C@H]3C[C@H](OC4CCN(c5ccc(-c6cnc7[nH]cc(C(=O)c8c(F)ccc(NS(=O)(=O)N9CCCC9)c8F)c7c6)cn5)CC4)C3)cc2)C(=O)N1 (stereo partly shown) [Example A105, N-[3-[1-[5-[3-[2,6-Difluoro-3-(pyrrolidin-1-ylsulfonylamino)benzoyl]-1H-pyrrolo[2,3-b]pyridin-5-yl]pyridin-2-yl]piperidin-4-yl]oxycyclobutyl]-2-[4-[(2,6-dioxopiperidin-3-yl)amino]phenyl]acetamide]
DC50: 24 nM
Emax [1]: 30%

CC(C)S(=O)(=O)Nc1ccc(F)c(C(=O)c2c[nH]c3ncc(-c4ccc(N5CCN(C(=O)C6CC(N7CCC(c8ccc(NC9CCC(=O)NC9=O)cc8)CC7)C6)CC5)nc4)cc23)c1F (stereo not shown) [Example A107, N-[3-[5-[6-[4-[3-[4-[4-[(2,6-Dioxopiperidin-3-yl)amino]phenyl]piperidin-1-yl]cyclobutanecarbonyl]piperazin-1-yl]pyridin-3-yl]-1H-pyrrolo[2,3-b]pyridine-3-carbonyl]-2,4-difluorophenyl]propane-2-sulfonamide]
DC50: 12 nM
Emax [1]: 12%

CC(C)S(=O)(=O)Nc1ccc(F)c(C(=O)c2c[nH]c3ncc(-c4ccc(N5CCN(C(=O)CN6CCC(c7ccc(N8CCC(=O)NC8=O)cc7)CC6)CC5)nc4)cc23)c1F [Example A108, N-[3-[5-[6-[4-[2-[4-[4-(2,4-Dioxo-1,3-diazinan-1-yl)phenyl]piperidin-1-yl]acetyl]piperazin-1-yl]pyridin-3-yl]-1H-pyrrolo[2,3-b]pyridine-3-carbonyl]-2,4-difluorophenyl]propane-2-sulfonamide]
DC50: 14 nM
Emax [1]: 8%

CCN(C)S(=O)(=O)Nc1ccc(F)c(C(=O)c2c[nH]c3ncc(-c4ccc(N5CCC(NCC(=O)N6CCC(c7ccc(OC8CCC(=O)NC8=O)cc7)CC6)CC5)nc4)cc23)c1F (stereo not shown) [Example A109, 5-[6-[4-[[2-[4-[4-(2,6-Dioxopiperidin-3-yl)oxyphenyl]piperidin-1-yl]-2-oxoethyl]amino]piperidin-1-yl]pyridin-3-yl]-3-[3-[[ethyl(methyl)sulfamoyl]amino]-2,6-difluorobenzoyl]-1H-pyrrolo[2,3-b]pyridine; formic acid]
DC50: 44 nM
Emax [1]: 13%

CCN(C)S(=O)(=O)Nc1ccc(F)c(C(=O)c2c[nH]c3ncc(-c4ccc(N5CCC(NCC(=O)N6CCC(c7ccc(NC8CCC(=O)NC8=O)cc7)CC6)CC5)nc4)cc23)c1F (stereo not shown) [Example A110, 5-[6-[4-[[2-[4-[4-[(2,6-Dioxopiperidin-3-yl)amino]phenyl]piperidin-1-yl]-2-oxoethyl]amino]piperidin-1-yl]pyridin-3-yl]-3-[3-[[ethyl(methyl)sulfamoyl]amino]-2,6-difluorobenzoyl]-1H-pyrrolo[2,3-b]pyridine;formic acid]
DC50: 13 nM
Emax [1]: 13%

CCN(C)S(=O)(=O)Nc1ccc(F)c(C(=O)c2c[nH]c3ncc(-c4cnc(N5CCC(CC(=O)N6CCC(c7ccc(NC8CCC(=O)NC8=O)cc7)CC6)CC5)nc4)cc23)c1F (stereo not shown) [Example A112, 5-[2-[4-[2-[4-[4-[(2,6-Dioxopiperidin-3-yl)amino]phenyl]piperidin-1-yl]-2-oxoethyl]piperidin-1-yl]pyrimidin-5-yl]-3-[3-[[ethyl(methyl)sulfamoyl]amino]-2,6-difluorobenzoyl]-1H-pyrrolo[2,3-b]pyridine]
DC50: 15 nM
Emax [1]: 15%

CCN(C)S(=O)(=O)Nc1ccc(F)c(C(=O)c2c[nH]c3ncc(-c4cnc(N5CCC(CC(=O)N6CCC(c7ccc(N8CCC(=O)NC8=O)cc7)CC6)CC5)nc4)cc23)c1F [Example A113, 5-[2-[4-[2-[4-[4-(2,4-Dioxo-1,3-diazinan-1-yl)phenyl]piperidin-1-yl]-2-oxoethyl]piperidin-1-yl]pyrimidin-5-yl]-3-[3-[[ethyl(methyl)sulfamoyl]amino]-2,6-difluorobenzoyl]-1H-pyrrolo[2,3-b]pyridine]
DC50: 53 nM
Emax [1]: 33%
